We go through one molecule from patent US20160082127A1, “PHOTOSENSITIZER PARTICLES FOR MEDICAL IMAGING AND/OR PHOTODYNAMIC THERAPY” (DCB-USA LLC, priority 2013, published 2016).

SMILES strings stand for the structures.

The test system of this series is mice skin. Briefly: In vivo photohypersensitivity of mice skin. More on the design: species or system nude mice. Conditions: 0.3 mg/kg i.v. The method, then:
It is well known that some PDT agents result in photohypersensitivity of the skin, which causes significant inconvenience in the daily life of the patient. Typical signs of photohypersensitivity include redness and swelling of the skin, visible angiopathy along with the formation of skin debris and even eschar in server cases. To investigate whether the present photosensitizer particles may elicit photohypersensitivity in the patient, 0.3 mg/kg native CPLA photosensitizer particles (LN1 particles from Example 2.1, above) and 0.3 mg/kg gas-loaded CPLA photosensitizer particles (LA1 particles from Example 2.1, above) were respectively injected to the tail of nude mice via intravenous injection 3 hours prior to light irradiation (15, 40 or 100 J/cm^2). Foscan® (0.3 mg/kg) was used as the positive control, while 1×PBS (100 μL) was used as negative control.

As for `Oc1cccc(-c2c3nc(c(-c4cccc(O)c4)c4ccc([nH]4)c(-c4cccc(O)c4)c4nc(c(-c5cccc(O)c5)c5ccc2[nH]5)CC4)C=C3)c1` [Foscan®], the photohypersensitivity of skin entry is, setting by setting: (15 or 40 J/cm^2) “little to mild photohypersensitivity”; (100 J/cm^2) “significant photohypersensitivity”.
